From ChEMBL document CHEMBL1125298, “Hypocholesterolemic activity of synthetic and natural tocotrienols” (J Med Chem, 1992) come the findings set out here.

The test system of assay [1] is HepG2. As to the kind of experiment: Compound evaluated for percent inhibition of cholesterol synthesis from [14C]acetate in HepG2 cell. The assay is classed as functional, Homo sapiens. Details: concentration or dose not given beside the values.
Assay [2] relates to HepG2. As to the kind of experiment: Compound evaluated for percent inhibition of cholesterol synthesis from HMG-CoA Reductase in HepG2 cell. The assay is classed as functional, Homo sapiens.
The species named for assay [3] is Rattus norvegicus. As to the kind of experiment: Compound was evaluated for percent inhibition of cholesterol biosynthesis in primary rat hepatocytes at a concentration of 1100 ug/mL (pre-incubated for 45 min). It is filed as functional. Particulars: Hepatocyte.
The species named for assay [4] is Rattus norvegicus. As to the kind of experiment: Compound was evaluated for percent inhibition of cholesterol biosynthesis in primary rat hepatocytes at a concentration of 550 ug/mL (pre-incubated for 45 min). The assay is classed as functional. Particulars: Hepatocyte.
The species entered for assay [5] is Rattus norvegicus. The experiment in a line: Inhibitory concentration required to inhibit cholesterol biosynthesis in rat hepatocytes. The assay is classed as functional, Hepatocyte.
The species named for assay [6] is Rattus norvegicus. As to the kind of experiment: Compound was evaluated for percent inhibition of cholesterol biosynthesis in primary rat hepatocytes at a concentration of 2200 ug/mL (pre-incubated for 45 min). It is filed as functional. Particulars: Hepatocyte.
The species entered for assay [7] is Rattus norvegicus. As to the kind of experiment: Compound was evaluated for percent inhibition of cholesterol biosynthesis in primary rat hepatocytes at a concentration of 138 ug/mL (pre-incubated for 45 min). It is filed as functional. To be noted: Hepatocyte.
Assay [8] is filed under the species Rattus norvegicus. As to the kind of experiment: Compound was evaluated for percent inhibition of cholesterol biosynthesis in primary rat hepatocytes at a concentration of 275 ug/mL (pre-incubated for 45 min). It is filed as functional. Particulars: Hepatocyte.

Molecules are shown by their SMILES.

For `CC(C)=CCC/C=C/CCC1(C)CCc2cc(O)c(C)c(C)c2O1` (configuration not stated), the Inhibition in the assay on HepG2 [1] is given as 38%.

Take `COCCOCOc1cc2c(c(C)c1C)OC(C)(CC/C=C/CCC=C(C)C)CC2` (configuration not stated): in the assay on HepG2 [1], the Inhibition is listed as 19%.

Take `Cc1c(O)cc2c(c1C)OC(C)(CCCC(C)CCCC(C)CCCC(C)C)CC2` (configuration not stated): the Inhibition in the assay on HepG2 [2] turned out to be 0%; with HepG2 [1], 3%.

Compound `CC(C)=CCC/C(C)=C/CC/C(C)=C/CC[C@]1(C)CCc2cc(O)ccc2O1` (mixture of isomers) gave an inhibition at 1100 µg/mL in the assay listed under Rattus norvegicus [3] of 60%. In the assay listed under Rattus norvegicus [4], this compound had an inhibition at 550 µg/mL of 45%. Besides, the Inhibition in the assay listed under Rattus norvegicus [5] stood at 31%. This compound yielded an inhibition at 2200 µg/mL in the assay filed under Rattus norvegicus [6] of 70%. Also, half-maximal inhibition in the assay listed under Rattus norvegicus [7] (IC50) required 600 µg/mL. Besides, in the assay filed under Rattus norvegicus [8], 275 µg/mL produced 38% inhibition.

As for `CC(C)=CCC/C(C)=C/CC/C(C)=C/CCC1(C)CCc2cc(O)ccc2O1` (racemic), the Inhibition was 56% in the assay with HepG2 [2] and 63% with HepG2 [1].
